This data set is described as follows: log P determination by HPLC (reversed-phase C18, EEC Directive 79/831 Annex V.A8). Format: physicochemical. The settings on record: 43° C; for chromatographic logP: reversed-phase C18 HPLC column, pH 2.3, pH 2.3, 0.1% aqueous phosphoric acid/acetonitrile gradient. The source says: Mobile phases for determination in the acidic range: 0.1% aqueous phosphoric acid, acetonitrile; linear gradient from 10% acetonitrile to 90% acetonitrile.

`Fc1cccc(F)c1C1=NC(c2ccc(-c3cnc(N4CCN(CCc5ccccc5)CC4)nc3)cc2)CC1` (centres unmarked) [Example 168] had a chromatographic logP of 1.84.
Still for that read-out and setting: the result for `Fc1cccc(F)c1C1=NC(c2ccc(-c3cnc(N4CCN(c5cccc(Cl)c5)CC4)nc3)cc2)CC1` (centres unmarked) [Example 136] reads 4.83; that for `CCC(C)N1CCN(c2ncc(-c3ccc(C4CCC(c5c(F)cccc5F)=N4)cc3)cn2)CC1` (centres unmarked) [Example 158], 1.65; that for `CCCCCCN(C(C)=O)c1ccc(-c2ccc(C3CCC(c4c(F)cccc4F)=N3)cc2)nn1` (centres unmarked) [Example 60], 3.11.
The same measure, in the same setting: the result for `CCC(C)N1CCN(c2ccc(-c3ccc(C4CCC(c5c(F)cccc5F)=N4)cc3)cn2)CC1` (centres unmarked) [Example 113] reads 1.3; that for `Cc1ccc(N2CCN(c3ccc(-c4ccc(C5CCC(c6c(F)cccc6F)=N5)cc4)cn3)CC2)cc1C` (centres unmarked) [Example 191], 2.58; that for `CCC(C)N(Cc1ccco1)c1ncc(-c2ccc(C3CCC(c4c(F)cccc4F)=N3)cc2)cn1` (centres unmarked) [Example 185], 4.54.
The same measure, in the same setting: the figure for `CN(c1ccc(-c2ccc(C3CCC(c4c(F)cccc4F)=N3)cc2)nc1)S(=O)(=O)C(F)(F)F` (centres unmarked) [Example 23] is 2.63.
As for `CC(C)(C)C(=O)N(c1ccc(-c2ccc(C3CCC(c4c(F)cccc4F)=N3)cc2)nn1)C1CCCC1` (centres unmarked) [Example 63], the chromatographic logP is 3.22.
As to `Fc1cccc(F)c1C1=NC(c2ccc(-c3cnc(OC4CCCCC4)nc3)cc2)CC1` (centres unmarked) [Example 198], the chromatographic logP is 3.67.
Still for that read-out and setting: the result for `CCN(CC)c1ccc(Cl)nn1` [III-10, N-(6-chloro-3-pyridazinyl)-N,N-diethylamine] reads 0.51.
Take `CC(=O)OCCCN(Cc1ccc(-c2ccc(C3CCC(c4c(F)cccc4F)=N3)cc2)nn1)C(C)=O` (centres unmarked) [Example 89]: the chromatographic logP is 1.77.
Still for that read-out and setting: the figure for `Fc1cccc(F)c1C1=NC(c2ccc(-c3cnc(N4CCCCCC4)nc3)cc2)CC1` (centres unmarked) [Example 105] is 3.41.
As for `CCON=C1CCN(c2ncc(-c3ccc(C4CCC(c5c(F)cccc5F)=N4)cc3)cn2)CC1` (centres unmarked) [Example 216], the chromatographic logP is 3.1.
The same measure, in the same setting: the result for `Fc1cccc(F)c1C1=NC(c2ccc(-c3cnc(NC4CC4)nc3)cc2)CC1` (centres unmarked) [Example 160] reads 1.65; that for `CC(C)Sc1ccc(-c2ccc(C3CCC(c4c(F)cccc4F)=N3)cc2)nn1` (centres unmarked) [Example 47], 2.94.
Same read-out and setting: the figure for `COc1ccc(CN2CCN(c3ccc(-c4ccc(C5CCC(c6c(F)cccc6F)=N5)cc4)cn3)CC2)cc1` (centres unmarked) [Example 174] is 1.59; for `CC(C)(C)c1ccc(CN2CCN(c3ncc(-c4ccc(C5CCC(c6c(F)cccc6F)=N5)cc4)cn3)CC2)cc1` (centres unmarked) [Example 139] it is 3.3; for `O=C1CCCCCN1c1ncc(-c2ccc(C3CCC(c4c(F)cccc4F)=N3)cc2)cn1` (centres unmarked) [Example 167] it is 1.89.
`CN(C)c1ncc(-c2ccc(C3CCC(c4c(F)cccc4F)=N3)cc2)cn1` (centres unmarked) [Example 42]: the “log P (pH 2.3)” value (pH 2.3, 0.1% aqueous phosphoric acid/acetonitrile gradient) turned out to be 2.40.
As to `CCCN(CCC)c1ccc(Cl)nn1` [III-12, N-(6-chloro-3-pyridazinyl)-N,N-dipropylamine], the chromatographic logP was 1.82.
The compound `CC1CN(c2ncc(-c3ccc(C4CCC(c5c(F)cccc5F)=N4)cc3)cn2)CC(C)O1` (centres unmarked) [Example 104] gave a chromatographic logP of 3.
Same read-out and setting: the result for `CC(C)(C)C(=O)N1CCN(c2ncc(-c3ccc(C4CCC(c5c(F)cccc5F)=N4)cc3)cn2)CC1` (centres unmarked) [Example 36] reads 2.81; that for `CCN(C)c1ccc(-c2ccc(C3CCC(c4c(F)cccc4F)=N3)cc2)nn1` (centres unmarked) [Example 75], 1.23.
Compound `Fc1cccc(F)c1C1=NC(c2ccc(-c3ccc(C(F)(F)F)cn3)cc2)CC1` (centres unmarked) [Example 2] displayed a chromatographic logP of 3.25.
Regarding `CN(C)CCN1CCN(c2ncc(-c3ccc(C4CCC(c5c(F)cccc5F)=N4)cc3)cn2)CC1` (centres unmarked) [Example 132], the chromatographic logP is 3.
The same measure, in the same setting: the result for `Fc1cccc(F)c1C1=NC(c2ccc(-c3cnc(OC(C(F)(F)F)C(F)(F)F)nc3)cc2)CC1` (centres unmarked) [Example 95] reads 3.85.
Still for that read-out and setting: the figure for `Fc1ccc(N2CCN(c3ncc(-c4ccc(C5CCC(c6c(F)cccc6F)=N5)cc4)cn3)CC2)cc1` (centres unmarked) [Example 149] is 3.95; for `Cc1nc(-c2ccc(C3CCC(c4c(F)cccc4F)=N3)cc2)nc(C)c1Cl` (centres unmarked) [Example 219] it is 3.9; for `O/N=C/c1ccc(-c2ccc(C3CCC(c4c(F)cccc4F)=N3)cc2)nc1` (centres unmarked) [Example 210] it is 1.58.
On the same count and under the same terms, the result for `CCCCCCC(=O)N(CCC)c1ccc(-c2ccc(C3CCC(c4c(F)cccc4F)=N3)cc2)nn1` (centres unmarked) [Example 64] reads 3.89; that for `CCN(Cc1ccc(Cl)nc1)c1ncc(-c2ccc(C3CCC(c4c(F)cccc4F)=N3)cc2)cn1` (centres unmarked) [Example 209], 3.6; that for `N#Cc1ccccc1N1CCN(c2ncc(-c3ccc(C4CCC(c5c(F)cccc5F)=N4)cc3)cn2)CC1` (centres unmarked) [Example 146], 3.78.
`CCCN(CC)c1ncc(-c2ccc(C3CCC(c4c(F)cccc4F)=N3)cc2)cn1` (centres unmarked) [Example 1, N-(5-{4-[5-(2,6-difluorophenyl)-3,4-dihydro-2H-pyrrol-2-yl]phenyl}-2-pyrimidinyl)-N-ethyl-N-propylamine]: the chromatographic logP was determined as 3.57.
Same read-out and setting: the result for `CCCN(CC)c1ccc(-c2ccc(C3CCC(c4c(F)cccc4F)=N3)cc2)nn1` (centres unmarked) [Example 52] reads 1.6.
On the same count and under the same terms, the figure for `Brc1cnc(N2CCOCC2)nc1` [III-5, 4-(5-bromo-2-pyrimidinyl)morpholine] is 2.15.
In turn, `CCOC(CN(C)c1ncc(-c2ccc(C3CCC(c4c(F)cccc4F)=N3)cc2)cn1)OCC` (centres unmarked) [Example 207] returned a chromatographic logP of 3.09.
Compound `Fc1cccc(F)c1C1=NC(c2ccc(-c3ccc(OCC(F)(F)F)nn3)cc2)CC1` (centres unmarked) [Example 45] had a chromatographic logP of 3.77.
The compound `FC(F)Sc1ncc(-c2ccc(C3CCC(c4ccccc4Cl)=N3)cc2)cn1` (centres unmarked) [Example 93] displayed a chromatographic logP of 3.38.
For the compound `CN(Cc1ccc(-c2ccc(C3CCC(c4c(F)cccc4F)=N3)cc2)nc1)S(=O)(=O)C(F)(F)F` (centres unmarked) [Example 13], the chromatographic logP was 3.06.
The same measure, in the same setting: the result for `CN(C(=O)C(C)(C)C)c1ccc(Cl)nn1` [III-17, N-(6-chloro-3-pyridazinyl)-N-methyl-N-2,2-trimethylpropanamide] reads 1.69; that for `Fc1cccc(F)c1C1=NC(c2ccc(-c3cnc(N4CCN(CC5CCCCC5)CC4)nc3)cc2)CC1` (centres unmarked) [Example 123], 2.12; that for `Fc1cccc(F)c1C1=NC(c2ccc(-c3cnc(N4CCN(Cc5ccccc5)CC4)nc3)cc2)CC1` (centres unmarked) [Example 152], 1.92.
Same read-out and setting: the figure for `N#Cc1cccnc1N1CCN(c2ccc(-c3ccc(C4CCC(c5c(F)cccc5F)=N4)cc3)cn2)CC1` (centres unmarked) [Example 190] is 3.09.
Take `CCc1cnc(-c2ccc(C3CCC(c4c(F)cccc4F)=N3)cc2)nc1` (centres unmarked) [Example 181]: the chromatographic logP is 2.46.
As to `O=S(=O)(Nc1ccc(Cl)nn1)C(F)(F)F` [III-22, N-(6-chloro-3-pyridazinyl)(trifluoro)methane-sulphonamide], the chromatographic logP was 1.56.
The same measure, in the same setting: the result for `Fc1cccc(F)c1C1=NC(c2ccc(-c3ncc(Br)cn3)cc2)CC1` (centres unmarked) [Example 180] reads 3.08; that for `CCOc1ncc(-c2ccc(C3CCC(c4c(F)cccc4F)=N3)cc2)cn1` (centres unmarked) [Example 102], 2.21.
On the same count and under the same terms, the result for `COCCN1CCN(c2ncc(-c3ccc(C4CCC(c5c(F)cccc5F)=N4)cc3)cn2)CC1` (centres unmarked) [Example 148] reads 1.49; that for `Fc1cccc(F)c1C1=NC(c2ccc(-c3cnc(SCSC(F)(F)F)nc3)cc2)CC1` (centres unmarked) [Example 92], 4; that for `CC(C)Oc1ccc(Cl)nn1` [III-18, 3-chloro-6-isopropoxypyridazine], 1.94.
Still for that read-out and setting: the figure for `CCOCCN1CCN(c2ccc(-c3ccc(C4CCC(c5c(F)cccc5F)=N4)cc3)cn2)CC1` (centres unmarked) [Example 193] is 1.26; for `C=CCN(CC=C)c1ncc(-c2ccc(C3CCC(c4c(F)cccc4F)=N3)cc2)cn1` (centres unmarked) [Example 108] it is 3.74; for `CC(=O)N(c1ccc(-c2ccc(C3CCC(c4c(F)cccc4F)=N3)cc2)nn1)C(C)C` (centres unmarked) [Example 54] it is 2.03.
In turn, `CC1(C)CCN(c2ncc(-c3ccc(C4CCC(c5c(F)cccc5F)=N4)cc3)cn2)CC1` (centres unmarked) [Example 120] yielded a chromatographic logP of 4.38.
The same measure, in the same setting: the result for `FC(F)(F)COc1ccc(Br)cn1` [III-2, 5-bromo-2-(2,2,2-trifluoroethoxy)pyridine] reads 3.48.
Same read-out and setting: the figure for `Fc1cccc(F)c1C1=NC(c2ccc(-c3cnc(N4CCN(c5ccccn5)CC4)nc3)cc2)CC1` (centres unmarked) [Example 159] is 2.06; for `CC(C)COC(=O)c1ccc(-c2ccc(C3CCC(c4c(F)cccc4F)=N3)cc2)nc1` (centres unmarked) [Example 9] it is 3.28; for `N#Cc1ccccc1N1CCN(c2ccc(-c3ccc(C4CCC(c5c(F)cccc5F)=N4)cc3)cn2)CC1` (centres unmarked) [Example 133] it is 2.3.
With `CCCCCCN(C(=O)C(C)(C)C)c1ccc(-c2ccc(C3CCC(c4c(F)cccc4F)=N3)cc2)nn1` (centres unmarked) [Example 61], the chromatographic logP amounted to 4.35.
The same measure, in the same setting: the figure for `CN(C)c1ccc(-c2ccc(C3CCC(c4c(F)cccc4F)=N3)cc2)nn1` (centres unmarked) [Example 79] is 1.08; for `CCC(CC)N1CCN(c2ccc(-c3ccc(C4CCC(c5c(F)cccc5F)=N4)cc3)cn2)CC1` (centres unmarked) [Example 138] it is 1.39; for `Fc1cccc(F)c1C1=NC(c2ccc(-c3ccc(N4CCN(c5ncccn5)CC4)nc3)cc2)CC1` (centres unmarked) [Example 204] it is 1.5.
With `CCCCCC(=O)N(C)c1ccc(-c2ccc(C3CCC(c4c(F)cccc4F)=N3)cc2)nn1` (centres unmarked) [Example 68], the chromatographic logP was 3.24.
The same measure, in the same setting: the figure for `Fc1cccc(F)c1C1=NC(c2ccc(-c3cnc(OCC4CC4)nc3)cc2)CC1` (centres unmarked) [Example 200] is 2.74.

Broadly, the chromatographic logP is a lipophilicity value derived from retention on a column. A high value points to a more lipophilic compound.

Source of the values: patent US7179806B2, “Δ1-pyrrolines used as pesticides” (Bayer Cropscience AG, priority 2000, dated 2007).
